Source: paper PMC8231556, “Inhibiting Endothelial Cell Function in Normal and Tumor Angiogenesis Using BMP Type I Receptor Macrocyclic Kinase Inhibitors” (Cancers, 2021)

Key:
[1] = system: BMP9-induced ID1, ID3, and SMAD6 mRNA expression; test: RT-qPCR of BMP9-induced ID1, ID3 and SMAD6 mRNA in EA.hy926 cells; assay type: cell-based, human; conditions: 0.5 µM compound, BMP9 1 ng/mL
Experimental: EA.hy926 cells or HUVECs were seeded in 6-well plates and cultured until they reached 80% confluence. The medium was replaced with a serum-free medium for a 4 h starvation. For EA.hy926 cells, the compounds were added at a final concentration of 0.5 μM for 30 min, followed by BMP9 (1 ng/mL), TGF-β2 (1 ng/mL), or vehicle control addition and cultured for another 3 h before the cells were harvested. To investigate VEGF-induced cellular response, HUVECs were exposed to VEGF (40 ng/mL) for 1 h after 30 min pre-treatment with the compounds.
After samples were collected, total RNA was isolated and purified using the NucleoSpin RNA II kit (740955, BIOKE, Leiden, the Netherlands), following the manufacturer’s instructions. Then, the mRNA was used as a template to synthesize cDNA by performing reverse transcription with the RevertAid First Strand cDNA Synthesis Kit (K1621, ThermoFisher Scientific). Gene expression levels were determined by RT-qPCR analysis using the GoTaq qPCR Master Mix (A6001, Promega, Madison, WI, USA) and normalized to GAPDH expression. All the experiments were repeated three times, and results from three biologically independent experiments are shown.

EA.hy926 cells = test: MTS assay; assay type: cell-based, human; conditions: 0.5 μM, day 1, 2 and 3
Experimental: The MTS assay was used to measure the metabolic activity and viability of the cells. Around 5 × 10^3 EA.hy926 cells were seeded and cultured overnight in a 96-well plate and then cultured in the normal growth medium, which contained the indicated compounds and ligands. The MTS tetrazolium was measured according to the manufacturer’s protocol using an MTS Assay Kit (G3580, Promega). In brief, after exposing the cells in set conditions for 1, 2, and 3 days, 20 µL of MTS reagent was added to 100 μL cell growth medium per well and incubated for 4 h at 37 °C. Thereafter, absorbance at 490 nm was measured using a PerkinElmer […]. All the experiments were repeated at least three times, and representative experiments are shown.

[2] = system: Tg (fli:EGFP) zebrafish embryos; test: Zebrafish DLAV and ISV formation; assay type: in vivo; conditions: 0.5 µM, 20 h
Experimental: The Tg (fli:EGFP) zebrafish embryos were collected, and embryos with the same development stage (around 2.5 hpf) were selected. The eggs were randomly separated into different groups, and each group contained at least 20 embryos. The embryos were exposed to egg water containing 0.5 µM compounds or vehicle control (equal amount of DMSO) for 20 h at 28 °C. Next, all the eggs were dechorionated under the microscope using tweezers. The zebrafish embryos were fixed in 4% paraformaldehyde (PFA) for 2 h at room temperature and stored at 4 °C in phosphate-buffered saline (PBS). The entire zebrafish embryo was imaged with an Andor Dragonfly 500 spinning disk confocal (Oxford Instruments, Abingdon, UK) using a 488 nm laser. Five embryos in each group were randomly selected and scanned. The zebrafish vasculature formation of DLAV and ISV after 20 h treatment with compounds was quantified using ImageJ as previously described. The experiments were repeated twice with similar results.

[3] = system: Tg (fli:EGFP) zebrafish embryos; test: Zebrafish subintestinal vessel (SIV) formation; assay type: in vivo; conditions: 0.5 µM, 3 days
Experimental: The Tg (fli:EGFP) zebrafish embryos were collected, and embryos with the same development stage (around 2.5 hpf) were selected. Groups containing at least 25 embryos were treated with the indicated compounds at 0.5 µM for 3 days. The egg water was refreshed every day, and the abnormal embryos were removed. After 3 days of treatment, the zebrafish embryos were fixed in 4% PFA for 2 h at room temperature and stored at 4 °C in PBS. The area containing SIV in each zebrafish embryo was scanned with an Andor Dragonfly 500 spinning disk confocal by using a 488 nm laser. At least ten zebrafish embryos in each group were randomly selected and analyzed. The SIV vasculature of the zebrafish was quantified with ImageJ. The leading buds were counted as previously described. The experiments were repeated twice with similar results.

VEGF-induced pERK = test: Western blot of VEGF-induced ERK MAP kinase phosphorylation in HUVECs; assay type: cell-based, human; conditions: VEGF 40 ng/mL
Experimental: EA.hy926 cells or HUVECs were seeded in 6-well plates and starved in a serum-free medium for 4 h after reaching 80% confluence. The compounds were added 30 min prior to stimulation with the corresponding ligands. EA.hy926 cells were incubated with BMP9 (1 ng/mL), BMP6 (50 ng/mL), TGF-β2 (1 ng/mL), or vehicle control for 1 h. For HUVECs, after 4 h starvation, the cells were pre-treated with or without the indicated compounds for 30 min and subsequently stimulated with VEGF (40 ng/mL) for 10 min. The cells were harvested and lysed in radioimmunoprecipitation assay (RIPA) lysis buffer containing 1× complete protease inhibitor cocktail (11836153001, Roche, Basel, Switzerland). The protein concentration was determined using the DC protein assay kit (5000111, Bio-Rad). After adding loading buffer, the samples were boiled and proteins separated by sodium dodecyl sulfate polyacrylamide gel electrophoresis (SDS-PAGE). Proteins in the gel were transferred to polyvinylidene difluoride (PVDF) membranes (IPVH00010, Merck Millipore, Burlington, MA, USA) and immunoblotted with 1000 times diluted primary antibodies: phospho-SMAD1/5 (9516 S, Cell Signaling Technology, Leiden, The Netherlands), phospho-SMAD2 (pSMAD2, home-made), SMAD1 (6944 S, Cell Signaling Technology), SMAD2 (3103 S, Cell Signaling Technology), phospho-extracellular signal-regulated kinase/mitogen-activated protein kinase (pERK/MAPK, 4370, Cell Signaling Technology), mitogen-activated protein kinase/ERK1/2 (ERK1/2/MAPK, 9102 S, Cell Signaling Techonol), VEGFR (2479, Cell Signaling), pVEGFR (2478, Cell Signaling Technology), α/β-Tubulin (2148, Cell Signaling Technology), glyceraldehyde 3-phosphate dehydrogenase (GAPDH, MAB374, Merck Millipore). Clarity™ enhanced chemiluminescence (ECL) reagent (1705060, Bio-Rad) was used to visualize secondary antibodies conjugated to horseradish peroxidase (HRP). GAPDH or Tubulin was used as protein loading controls. […] The protein bands were quantified using ImageJ (National Institutes of Health, Bethesda, MD, USA).

SMILES | effect on BMP9-induced ID1, ID3 and SMAD6 mRNA expression [1] | effect on EA.hy926 cell viability (MTS) (EA.hy926 cells) | effect on DLAV and ISV formation (images) [2] | effect on total vessel length and number of junctions (DLAV and ISV, quantified) [2] | effect on SIV vessel length [3] | effect on number of SIV tip cells (leading buds) [3] | effect on VEGF-induced pERK (VEGF-induced pERK) | effect on DLAV formation [2] | effect on ISV development [2]
c1ccc2c(-c3cnn4cc(-c5ccc(N6CCNCC6)cc5)cnc34)ccnc2c1 [LDN-193189, reference compound] | inhibited | markedly attenuated | did not exhibit apparent defects | showed no effects | resulted in a lack of SIV vessels | significantly increased | – | – | –
CNC(=O)c1ccccc1Sc1ccc2c(/C=C/c3ccccn3)n[nH]c2c1 [Axitinib, reference compound] | – | no significant effects | strong defects in both DLAV and ISV formation | strongly inhibited | markedly inhibited | – | blocked | – | –
CN1CCc2cccc(c2)Nc2nccc(n2)N2CCCc3cc(ccc32)C1 [OD16] | inhibited | no significant effects | – | significantly inhibited | significantly inhibited | did not influence | failed to alter | strongly delayed | slightly inhibited
CN1CCC(=O)NCCNc2ccn3ncc(c3n2)-c2cccc(c2)C1 [OD29] | inhibited | no significant effects | strong negative impact | significantly inhibited | significantly inhibited | did not influence | profoundly decreased | – | –
